SMILES strings stand for the structures. pIC50: −log10 of the molar value.

Sequence of hJAK3 kinase domain (aa781-end) (P52333 781-1124 limits assumed): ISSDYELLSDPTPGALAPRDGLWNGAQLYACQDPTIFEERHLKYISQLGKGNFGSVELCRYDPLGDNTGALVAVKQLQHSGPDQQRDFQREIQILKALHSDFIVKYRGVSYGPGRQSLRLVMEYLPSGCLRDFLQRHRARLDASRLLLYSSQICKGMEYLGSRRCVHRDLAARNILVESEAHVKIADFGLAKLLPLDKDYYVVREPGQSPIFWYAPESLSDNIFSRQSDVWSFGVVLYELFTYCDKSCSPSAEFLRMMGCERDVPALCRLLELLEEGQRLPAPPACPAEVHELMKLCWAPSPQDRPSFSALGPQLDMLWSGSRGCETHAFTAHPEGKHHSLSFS
Sequence of hJAK2 kinase domain (aa808-end) (O60674 808-1132 limits assumed): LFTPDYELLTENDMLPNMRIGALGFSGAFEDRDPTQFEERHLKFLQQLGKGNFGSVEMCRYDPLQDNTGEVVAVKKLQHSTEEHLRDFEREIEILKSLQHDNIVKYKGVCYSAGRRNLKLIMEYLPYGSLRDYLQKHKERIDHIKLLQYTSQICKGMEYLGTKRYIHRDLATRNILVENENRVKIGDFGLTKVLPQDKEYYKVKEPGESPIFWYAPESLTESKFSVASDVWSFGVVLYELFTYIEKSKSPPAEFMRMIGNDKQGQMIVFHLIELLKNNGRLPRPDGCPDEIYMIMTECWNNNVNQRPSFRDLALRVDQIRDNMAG

The first experiment has as its target hJAK2 kinase domain (aa808-end) (Homo sapiens (Human), UniProt O60674). The experiment in a line: JAK2 activity inhibition, kinase reaction (Test 2). In kind it is biochemical.
Settings: not given
Compound `CC1CN(C(=O)CC#N)C12CCCN(c1ncnc3[nH]ccc13)C2` (single isomer, unassigned) [Compound 1, 3-[3-methyl-6-(7H-pyrrolo[2,3-d]pyrimidin-4-yl)-1,6-diazaspiro[3.5]non-1-yl]-3-oxopropionitrile] had a negative logarithm of the IC50 (pIC50) of 9.00.
On to `CC1CN(C(=O)CC#N)C12CCCN(c1ncnc3[nH]ccc13)C2` (single isomer, unassigned) [Compound 2, 3-[3-methyl-6-(7H-pyrrolo[2,3-d]pyrimidin-4-yl)-1,6-diazaspiro[3.5]non-1-yl]-3-oxopropionitrile], for which the pIC50 is 8.77.
Take `N#CCC(=O)N1CCC12CCCN(c1ncnc3[nH]ccc13)C2` (stereo not drawn) [Compound 3, 3-oxo-3-[6-(7H-pyrrolo[2,3-d]pyrimidin-4-yl)-1,6-diazaspiro[3.5]non-1-yl]-propionitrile]: the pIC50 was 8.66.
`N#CCC(=O)N1CC(F)(F)C12CCN(c1ncnc3[nH]ccc13)C2` (stereo not drawn) [Compound 4, 3-[3,3-difluoro-6-(7H-pyrrolo[2,3-d]pyrimidin-4-yl)-1,6-diazaspiro[3.4]oct-1-yl]-3-oxopropionitrile] gave a negative-log IC50 (pIC50) of 8.77.
`N#CCC(=O)N1CC(F)(F)C12CCCN(c1ncnc3[nH]ccc13)C2` (stereo not drawn) [Compound 5, 3-[3,3-difluoro-6-(7H-pyrrolo[2,3-d]pyrimidin-4-yl)-1,6-diaza-spiro[3.5]non-1-yl]-3-oxo-propionitrile] showed a pIC50 of 8.72.
Regarding `N#CCC(=O)N1CCCC12CCCN(c1ncnc3[nH]ccc13)C2` (stereo not drawn) [Compound 7, 3-oxo-3-[7-(7H-pyrrolo[2.3-d]pyrimidin-4-yl)-1,7-diazaspiro[4.5]dec-1-yl)propionitrile], the pIC50 is 8.33.

A further experiment concerns the target hJAK3 kinase domain (aa781-end) (Homo sapiens (Human), UniProt P52333). The experiment in a line: JAK3 activity inhibition, kinase reaction (Test 1). Particulars: read-out: JAK3 % Inhibition.
Experimental: JAK3 activity inhibitory effects of test compounds were evaluated by the following kinase reactions.
In the kinase reactions, fused proteins (6His tag-fused hJAK3 kinase domain (aa781-end)) which were coexpressed in Sf21 cells and purified by Ni2+/NTA agarose were used.
A well in which ATP was not added was set out as a blank well.
Plates were let stand at room temperature for 10 minutes from starting reactions.
One hour after the addition of the buffer for detection, fluorescence counts of each well were measured by a fluorescence microplate reader.
Data were obtained by deducting the average Ratio of a blank well from Ratio of each well.
With `N#CC1CCN(C(=O)N2CCCC23CCN(c2ncnc4[nH]ccc24)C3)C1` (racemic) [Compound 51], the inhibition at 1 µM was 41%.
For the compound `c1nc(N2CCCC3(CCCCCN3)C2)c2cc[nH]c2n1` (racemic) [Compound 75], the inhibition at 1 µM is 1%.
Take `c1nc(N2CCC3(CCCCN3)C2)c2cc[nH]c2n1` (racemic) [Compound 79]: the inhibition at 1 µM stood at 38%.
For `CC(=O)N1CCCC12CCN(c1ncnc3[nH]ccc13)C2` (racemic) [Compound 87], the inhibition at 1 µM came to 39%.
In the case of `N#CCC(=O)N1CCCC12CCCN(c1c(Cl)cnc3[nH]ncc13)C2` (racemic) [Compound 91], the inhibition at 1 µM amounted to 42%.
`CC1N(c2ncnc3[nH]ccc23)CCC12CCCN2C(=O)CC#N` (stereo not drawn) [Compound 13]: the inhibition at 1 µM was 26%.

The same experiment, now with this note: read-out: JAK3 IC50.
With `CC(O)C(=O)N1CCCC12CCCN(c1ncnc3[nH]ccc13)C2` (single isomer, unassigned) [Compound 30], the pIC50 was 6.24.
As for `CC1CC2(CCCN2C(=O)CC#N)CN1c1ncnc2[nH]ccc12` (single isomer, unassigned) [Compound 33], the pIC50 was 6.32.
Consider `CC1N(c2ncnc3[nH]ccc23)CCC12CCCN2C(=O)CC#N` (single isomer, unassigned) [Compound 34], for which the pIC50 is 7.44.
For `CC(O)C(=O)N1CCCC12CCCN(c1ncnc3[nH]ccc13)C2` (single isomer, unassigned) [Compound 35], the pIC50 is 6.28.
In the case of `CC(O)C(=O)N1CCCC12CCCN(c1ncnc3[nH]ccc13)C2` (single isomer, unassigned) [Compound 36], the pIC50 is 6.82.
`CC1CC2(CCCN2C(=O)CC#N)CN1c1ncnc2[nH]ccc12` (single isomer, unassigned) [Compound 42]: the negative-log IC50 (pIC50) was 7.00.
In the case of `CC1CC2(CCCN(c3ncnc4[nH]ccc34)C2)N1C(=O)CC#N` (stereo not drawn) [Compound 14], the pIC50 was 7.39.
With `CC1CC2(CCCN(c3ncnc4[nH]ccc34)C2)N1C(=O)CC#N` (stereo not drawn) [Compound 20], the pIC50 was 7.00.
For `C[C@H](O)C(=O)N1CCCC12CCCN(c1ncnc3[nH]ccc13)C2` (stereo partly drawn) [Compound 43], the pIC50 is 7.40.
Consider `CO[C@@H](C)C(=O)N1CCCC12CCCN(c1ncnc3[nH]ccc13)C2` (stereo partly drawn) [Compound 45], for which the pIC50 is 6.57.
`CO[C@H](C)C(=O)N1CCCC12CCCN(c1ncnc3[nH]ccc13)C2` (stereo partly drawn) [Compound 46]: the pIC50 was 6.57.
On to `CC(=O)O[C@@H](C)C(=O)N1CCCC12CCCN(c1ncnc3[nH]ccc13)C2` (stereo partly drawn) [Compound 47], for which the pIC50 was 6.96.

(Values after patent US20240150367A1, “NITROGEN-CONTAINING SPIRO CYCLIC COMPOUNDS AND PHARMACEUTICAL USE THEREOF” (Japan Tobacco Inc., priority 2009, published 2024).)
